Source: publication PMC6379965, “Expression and activity of the calcitonin receptor family in a sample of primary human high-grade gliomas” (BMC Cancer, 2019)
Ends that are not written are not given here.

Tests used:
[1] = system: SB2b cell line; assay: cAMP accumulation, αCGRP and AM, SB2b; type: cell-based, human; details: 30 min, 3 to 4 independent experiments in triplicate
Method: (§1) Primary patient high-grade glioma (HGG) cell lines, in vitro surrogates of glioblastoma, were developed by QIMR-Berghofer Medical Research Institute (Brisbane, Australia) and represent 3 distinct GBM subtypes: SB2b and PB1 (classical), JK2 (proneural) and WK1(mesenchymal), who supplied these directly for this study. GBM cell lines were cultured as adherent monolayers on matrigel (BD Biosciences)-coated flasks using StemPro NSC SFM serum free cell culture medium (Thermo Fisher Scientific) supplemented with 20 ng/ml EGF and 20 ng/ml FGFb, 1% D-glutamine and 1% of penicillin/ streptomycin (further referred as StemPro complete medium).
GBM cell lines were seeded at 38000 cells/well (SB2b) or 35,000 cells/well (PB1, JK2 and WK1) in 96-well matrigel-coated plates and incubated for 24 h at 37°C, 5% CO2 in humidified incubator in StemPro complete medium. Media was replaced with stimulation buffer (phenol red free F12 media, 0.1% BSA, 0.5 mM IBMX, pH 7.4). […] Cells were lysed (0.3% Tween 20, 5 mM Hepes, 0.1% BSA, pH 7.4) and 5 μl of cell lysate from each well was transferred to a corresponding well of 384-well optiplate. […] Data were analysed by three-parameter logistic curve and are presented as percentage of 10^− 5 M forskolin response.

[2] = system: CTR; details: receptor CTR; ref [10], [11], [38]; cited from earlier work
[3] = system: AMY1 (CTR + RAMP1); details: receptor AMY1, CTR + RAMP1; ref [10], [11], [38]; cited from earlier work
[4] = system: AMY3 (CTR + RAMP3); details: receptor AMY3, CTR + RAMP3; ref [10], [11], [38]; cited from earlier work
[5] = system: CGRP (CLR + RAMP1); details: receptor CGRP, ref [10], [11], [38]; cited from earlier work
[6] = system: AM1 (CLR + RAMP2); details: receptor AM1, CLR + RAMP2; ref [10], [11], [38]; cited from earlier work
[7] = system: AM2 (CLR + RAMP3); details: receptor AM2, CLR + RAMP3; ref [10], [11], [38]; cited from earlier work
[8] = system: WK1 cell line; assay: cAMP accumulation, CTR agonists, WK1; type: cell-based, human; details: 30 min, agonist 10^-12-10^-6 M, 3 to 5 independent experiments in triplicate
Method: as §1, with “medium). Cells were cultured in 5% CO2 / 95% humidified air at 37 °C.” for “medium).”
GBM cell lines were seeded at 38000 cells/well (SB2b) or 35,000 cells/well (PB1, JK2 and WK1) in 96-well matrigel-coated plates and incubated for 24 h at 37°C, 5% CO2 in humidified incubator in StemPro complete medium. Media was replaced with stimulation buffer (phenol red free F12 media, 0.1% BSA, 0.5 mM IBMX, pH 7.4). […] Intracellular cAMP levels in the wells were determined using Lance Ultra cAMP assay kit (Perkin Elmer) according to the manufacturer’s instructions and detected using an Envision multilabel 2103 reader. […] Data were analysed by three-parameter logistic curve and are presented as percentage of 10^− 5 M forskolin response.

[9] = system: JK2 cell line; assay: cAMP accumulation, CTR agonists, JK2; type: cell-based, human; details: 30 min, 3 to 5 independent experiments in triplicate
Method: as §1, with “medium). Cells were cultured in 5% CO2 / 95% humidified air at 37 °C.” for “medium).”
(§2) GBM cell lines were seeded at 38000 cells/well (SB2b) or 35,000 cells/well (PB1, JK2 and WK1) in 96-well matrigel-coated plates and incubated for 24 h at 37°C, 5% CO2 in humidified incubator in StemPro complete medium. Media was replaced with stimulation buffer (phenol red free F12 media, 0.1% BSA, 0.5 mM IBMX, pH 7.4). […] Cells were lysed (0.3% Tween 20, 5 mM Hepes, 0.1% BSA, pH 7.4) and 5 μl of cell lysate from each well was transferred to a corresponding well of 384-well optiplate. Intracellular cAMP levels in the wells were determined using Lance Ultra cAMP assay kit (Perkin Elmer) according to the manufacturer’s instructions and detected using an Envision multilabel 2103 reader. Raw RFU values were converted using a cAMP standard curve to give absolute cAMP concentrations. Data were analysed by three-parameter logistic curve and are presented as percentage of 10^− 5 M forskolin response.

[10] = system: PB1 cell line; assay: cAMP accumulation, CTR agonists, PB1; type: cell-based, human; details: 30 min, 3 to 5 independent experiments in triplicate
Method: as §1, with “medium). Cells were cultured in 5% CO2 / 95% humidified air at 37 °C.” for “medium).”
as §2

[11] = system: SB2b cell line; assay: Ca2+ mobilization, SB2b; type: cell-based, human; details: Fluo4-AM, FlexStation, 37 °C, pH 7.4, peak RFU, ATP 10 μM, ionomycin 1 μM, representative experiment, 3 replicates
Method: (§4) Primary patient high-grade glioma (HGG) cell lines, in vitro surrogates of glioblastoma, were developed by QIMR-Berghofer Medical Research Institute (Brisbane, Australia) and represent 3 distinct GBM subtypes: SB2b and PB1 (classical), JK2 (proneural) and WK1(mesenchymal) [37], who supplied these directly for this study. GBM cell lines were cultured as adherent monolayers on matrigel (BD Biosciences)-coated flasks using StemPro NSC SFM serum free cell culture medium (Thermo Fisher Scientific) supplemented with 20 ng/ml EGF and 20 ng/ml FGFb, 1% D-glutamine and 1% of penicillin/ streptomycin (further referred as StemPro complete medium).
(§5) GBM cell lines were seeded at 38000 cells/well (SB2b) or 35,000 cells/well (PB1 and WK1) in 96-well matrigel-coated plates and incubated for 24 h at 37 °C, 5% CO2 in humidified incubator in StemPro complete medium. […] Cells were incubated at 37°C for 60 min before ligand addition and detection of Ca^2+ mobilisation in a FlexStation 3 (Molecular Devices).

[12] = system: WK1 cell line; assay: Ca2+ mobilization, WK1; type: cell-based, human; details: Fluo4-AM, FlexStation, 37 °C, pH 7.4, peak RFU, ATP 10 μM, ionomycin 1 μM, representative experiment, 3 replicates
Method: as §4, §5

[13] = system: PB1 cell line; assay: Ca2+ mobilization, PB1; type: cell-based, human; details: Fluo4-AM, FlexStation, 37 °C, pH 7.4, peak RFU, ATP 10 μM, ionomycin 1 μM, representative experiment, 3 replicates
Method: as §4, §5

[14] = system: mouse thymic lymphoma models; details: CTR expressed as an amylin receptor, ref [18], [19]; cited from earlier work
Source text: (§3) Research on the role of CTR expression in cancer has been fragmentary and any role for CTR in cancer pathology seems to be entirely dependent on the cancer type. For instance, in human breast cancer model cell lines with high constitutive ERK (Extracellular Signal Regula ...

[15] = system: MDA-MB-231 xenograft tumours; details: ref [13]; cited from earlier work
Source text: as §3

[16] = system: human prostate cancer cell line PC3; details: ref [14], [15]; cited from earlier work
Source text: as §3

For `CC[C@H](C)[C@H](NC(=O)[C@H](CCC(N)=O)NC(=O)[C@H](Cc1c[nH]cn1)NC(=O)[C@H](C)NC(=O)[C@H](CC(C)C)NC(=O)[C@H](CCCCN)NC(=O)[C@H](CCC(N)=O)NC(=O)[C@@H](NC(=O)[C@@H](NC(=O)[C@@H]1CSSC[C@H](NC(=O)CNC(=O)[C@H](Cc2ccccc2)NC(=O)[C@H](CO)NC(=O)[C@H](CCCNC(=N)N)NC(=O)[C@H](CC(C)C)NC(=O)CNC(=O)[C@H](CCC(N)=O)NC(=O)[C@H](Cc2ccccc2)NC(=O)[C@H](CC(N)=O)NC(=O)[C@H](CC(N)=O)NC(=O)[C@H](CCSC)NC(=O)[C@H](CO)NC(=O)[C@H](CCC(N)=O)NC(=O)[C@H](CCCNC(=N)N)NC(=O)[C@@H](N)Cc2ccc(O)cc2)C(=O)N[C@@H](CCCNC(=N)N)C(=O)N[C@@H](Cc2ccccc2)C(=O)NCC(=O)N[C@@H]([C@@H](C)O)C(=O)N1)[C@@H](C)O)C(C)C)C(=O)N[C@@H](Cc1ccc(O)cc1)C(=O)N[C@@H](CCC(N)=O)C(=O)N[C@@H](Cc1ccccc1)C(=O)N[C@H](C(=O)N[C@@H](CC(=O)O)C(=O)N[C@@H](CCCCN)C(=O)N[C@@H](CC(=O)O)C(=O)N[C@@H](CCCCN)C(=O)N[C@@H](CC(=O)O)C(=O)N[C@@H](CC(N)=O)C(=O)N[C@H](C(=O)N[C@@H](C)C(=O)N1CCC[C@H]1C(=O)N[C@@H](CCCNC(=N)N)C(=O)N[C@@H](CO)C(=O)N[C@@H](CCCCN)C(=O)N[C@H](C(=O)N[C@@H](CO)C(=O)N1CCC[C@H]1C(=O)N[C@@H](CCC(N)=O)C(=O)NCC(=O)N[C@@H](Cc1ccc(O)cc1)C(N)=O)[C@@H](C)CC)C(C)C)[C@@H](C)O` [AM, Adrenomedullin], the “cAMP response to αCGRP, adrenomedullin (and weak amylin response)” value [1] is listed as “Weak responses”, the “Peptides rank order of potency (human)” value [2] is listed as “sCT ≥ hCT > AMY, αCGRP > AM, intermedin” and the “Peptides rank order of potency (human)” value [3] is listed as “sCT ≥ AMY ≥ αCGRP > intermedin ≥ hCT > AM”. The “Peptides rank order of potency (human)” value [4] was “sCT ≥ AMY > αCGRP > intermedin ≥ hCT > AM”, the “Peptides rank order of potency (human)” value [5] was “αCGRP > AM ≥ intermedin > AMY ≥ sCT” and the “Peptides rank order of potency (human)” value [6] was “AM > intermedin > α-CGRP, AMY > sCT”. For the same molecule, the “Peptides rank order of potency (human)” value [7] was “AM ≥ intermedin ≥ α-CGRP > AMY > SCT”.
With `CC(C)C[C@H](NC(=O)[C@H](CC(N)=O)NC(=O)[C@H](CC(N)=O)NC(=O)[C@H](CO)NC(=O)[C@H](CO)NC(=O)[C@H](CCCNC(=N)N)NC(=O)[C@@H](NC(=O)[C@H](CC(C)C)NC(=O)[C@H](Cc1ccccc1)NC(=O)[C@H](CC(N)=O)NC(=O)[C@H](C)NC(=O)[C@H](CC(C)C)NC(=O)[C@H](CCCNC(=N)N)NC(=O)[C@H](CCC(N)=O)NC(=O)[C@@H](NC(=O)[C@H](C)NC(=O)[C@@H]1CSSC[C@H](NC(=O)[C@@H](N)CCCCN)C(=O)N[C@@H](CC(N)=O)C(=O)N[C@@H]([C@@H](C)O)C(=O)N[C@@H](C)C(=O)N[C@@H]([C@@H](C)O)C(=O)N1)[C@@H](C)O)C(C)C)C(=O)NCC(=O)N1CCC[C@H]1C(=O)N[C@H](C(=O)N[C@@H](CC(C)C)C(=O)N1CCC[C@H]1C(=O)N1CCC[C@H]1C(=O)N[C@H](C(=O)N[C@@H](CC(N)=O)C(=O)N[C@H](C(=O)NCC(=O)N[C@@H](CO)C(=O)N[C@@H](CC(N)=O)C(=O)N[C@H](C(=O)N[C@@H](Cc1ccc(O)cc1)C(N)=O)[C@@H](C)O)C(C)C)[C@@H](C)O)C(C)C` [amylin, Amylin] the cAMP response [8] was “very weak response”, the cAMP response ([9]; agonist 10^-12-10^-6 M) was “very weak response” and the “pEC50, cAMP accumulation” value ([9]; CTR agonists, 37 °C, S.E.M.) was 5.9 ± 0.5. For the same molecule, the cAMP response ([10]; agonist 10^-12-10^-6 M) was “very weak response”, the “pEC50, cAMP accumulation” value ([10]; CTR agonists, 37 °C, S.E.M.) was 6.1 ± 0.5 and the “cAMP response to αCGRP, adrenomedullin (and weak amylin response)” value [1] was “Weak responses”. For the same molecule, the “intracellular Ca2+ mobilisation response” value [11] was “unable to detect functional CTR response”, the “intracellular Ca2+ mobilisation response” value ([11]; listed as rAMY) was “Absence of intracellular calcium mobilization response” and the “intracellular Ca2+ mobilisation response” value [12] was “unable to detect functional CTR response”. For the same molecule, the “intracellular Ca2+ mobilisation response” value ([12]; listed as rAMY) was “Absence of intracellular calcium mobilization response”, the “intracellular Ca2+ mobilisation response” value [13] was “unable to detect functional CTR response” and the “intracellular Ca2+ mobilisation response” value ([13]; listed as rAMY) was “Absence of intracellular calcium mobilization response”. The metabolic reprogramming [14] was “metabolic reprogramming (switch from glycolysis to oxidative phosphorylation)” and the susceptibility to apoptosis [14] was “increased susceptibility to apoptosis”.
In the case of Amylin, the “Peptides rank order of potency (human)” value [2] is given as “sCT ≥ hCT > AMY, αCGRP > AM, intermedin”, the “Peptides rank order of potency (human)” value [3] is given as “sCT ≥ AMY ≥ αCGRP > intermedin ≥ hCT > AM” and the “Peptides rank order of potency (human)” value [4] is given as “sCT ≥ AMY > αCGRP > intermedin ≥ hCT > AM”. For the same molecule, the “Peptides rank order of potency (human)” value [5] was “αCGRP > AM ≥ intermedin > AMY ≥ sCT”, the “Peptides rank order of potency (human)” value [6] was “AM > intermedin > α-CGRP, AMY > sCT” and the “Peptides rank order of potency (human)” value [7] was “AM ≥ intermedin ≥ α-CGRP > AMY > SCT”.
In the case of “Calcitonin (peptide) (CGNLSTCMLGTYTQDFNKFHTFPQTAIGVGAP; ends and bridges not checked; cysteine pairing not given here; UniProt P01258 85-116, looked up) [CT]”, the “growth of xenograft tumours” value [15] is listed as “inhibits the growth”, the apoptosis [16] is listed as “inhibits apoptosis” and the “tumour growth and invasiveness” value [16] is listed as “stimulates tumour growth and invasiveness”.
